In BindingDB's records for doi:10.7270/Q2JD4V5T (Burnham Center for Chemical Genomics, 2008):

target: Ephrin type-A receptor 4 (Mus musculus, UniProt Q03137); experiment: placental alkaline phosphatase inhibitors, dose response, counter-screen, biochemical, colorimetric (AID 779)
Sequence (Q03137 whole entry): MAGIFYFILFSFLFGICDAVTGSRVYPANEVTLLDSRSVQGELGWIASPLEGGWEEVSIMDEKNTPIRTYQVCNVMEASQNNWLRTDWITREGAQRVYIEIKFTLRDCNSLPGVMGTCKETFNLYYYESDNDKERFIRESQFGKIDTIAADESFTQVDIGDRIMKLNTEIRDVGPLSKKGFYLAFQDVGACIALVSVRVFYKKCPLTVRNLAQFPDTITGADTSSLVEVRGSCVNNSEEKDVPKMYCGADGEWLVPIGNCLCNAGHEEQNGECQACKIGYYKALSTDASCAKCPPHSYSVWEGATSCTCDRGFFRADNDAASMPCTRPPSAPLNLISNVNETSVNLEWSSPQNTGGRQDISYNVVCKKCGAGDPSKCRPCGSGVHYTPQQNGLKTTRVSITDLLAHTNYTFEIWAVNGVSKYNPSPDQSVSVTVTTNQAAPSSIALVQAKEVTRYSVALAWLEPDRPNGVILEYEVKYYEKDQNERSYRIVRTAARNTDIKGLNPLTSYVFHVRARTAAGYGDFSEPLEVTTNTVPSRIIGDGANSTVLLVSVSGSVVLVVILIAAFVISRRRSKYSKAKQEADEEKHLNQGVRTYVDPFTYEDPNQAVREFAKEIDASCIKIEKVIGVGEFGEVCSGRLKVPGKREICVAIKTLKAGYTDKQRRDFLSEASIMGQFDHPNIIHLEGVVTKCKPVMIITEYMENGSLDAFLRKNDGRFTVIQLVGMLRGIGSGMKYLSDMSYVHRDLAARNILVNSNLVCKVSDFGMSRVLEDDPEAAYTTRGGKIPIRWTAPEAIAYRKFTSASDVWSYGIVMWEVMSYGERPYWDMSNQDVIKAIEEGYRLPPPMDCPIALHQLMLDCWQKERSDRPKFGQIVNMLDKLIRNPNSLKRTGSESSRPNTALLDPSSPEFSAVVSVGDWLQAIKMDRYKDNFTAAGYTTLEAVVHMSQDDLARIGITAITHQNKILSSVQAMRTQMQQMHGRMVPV

| Compound | IC50 |
| --- | --- |
| Cc1ccc(Cl)cc1-n1c(C)nc(Cc2ccc([N+](=O)[O-])cc2)c1O [MLS000519000] | > 50 µM |
| CCCCN(CCCC)c1nc2ccccc2nc1C(C#N)C(=O)OCC (stereo unspecified) [(2Z)-2-cyano-2-[3-(dibutylamino)-1H-quinoxalin-2-ylidene]acetic acid ethyl ester] | > 50 µM |
| CCCCOP(=O)(OCCCC)C(C#N)C(C)=O (stereo unspecified) [(Z)-2-dibutoxyphosphoryl-3-hydroxy-2-butenenitrile] | > 50 µM |
| CC(CC(=O)c1ccccc1)N=Nc1nc2ccccc2s1 (stereo unspecified) [(E)-3-(1,3-benzothiazol-2-ylhydrazo)-1-phenyl-2-buten-1-one] | > 50 µM |
| CCN1C(=O)C(C=NN=Cc2ccccc2)c2ccc(C3=NNC(=O)CC3)cc21 (stereo unspecified) [benzaldehyde {[1-ethyl-2-oxo-6-(6-oxo-1,4,5,6-tetrahydro-3-pyridazinyl)-1,2-dihydro-3H-indol-3-ylidene]methyl}hydrazone] | > 50 µM |

target: not listed separately; experiment: as above

| Compound | IC50 |
| --- | --- |
| O=C1/C(=C\c2nc3ccccc3[nH]2)SC(=S)N1c1ccc(F)cc1 [SMR000163732] | > 50 µM |
